Measured values taken from ChEMBL document CHEMBL3286179, “Discovery of the Fibrinolysis Inhibitor AZD6564, Acting via Interference of a Protein-Protein Interaction” (ACS Med Chem Lett, 2014).

Key:
[1] = Dissociation constant, pKa of the compound; format: physicochemical
[2] = Oral bioavailability in rat at 20 umol/kg; format: ADME, organism-based; details: in vivo, at 20 µmol/kg
[3] = Drug excretion in rat urine; format: ADME; details: in vivo
[4] = Drug excretion in dog urine; format: ADME, Canis lupus familiaris; details: read-out: Drug excretion
[5] = Drug metabolism in human hepatocytes assessed as glucuronidation on isoxazolone ring; format: ADME, cell-based, Hepatocyte
[6] = Metabolic stability in human liver microsomes; format: ADME; details: read-out: Stability
[7] = Oral bioavailability in dog at 6 umol/kg; format: ADME, organism-based, Canis lupus familiaris; details: in vivo, at 6 µmol/kg
[8] = Renal clearance in rat at 5 umol/kg, iv and 20 umol/kg, po; format: ADME, organism-based, Kidney; details: in vivo
Hepatocyte = test: Metabolic stability in human hepatocytes measured per 10^6 cells; format: ADME, cell-based
[9] = Total clearance in dog at 3 umol/kg, iv and 6 umol/kg, po; format: ADME, organism-based, Canis lupus familiaris; details: in vivo
[10] = Renal clearance in dog at 3 umol/kg, iv and 6 umol/kg, po; format: ADME, organism-based, Canis lupus familiaris, Kidney; details: in vivo
[11] = Total clearance in rat at 5 umol/kg, iv and 20 umol/kg, po; format: ADME, organism-based; details: in vivo

O=c1cc([C@@H]2CCN[C@H](Cc3ccccc3)C2)o[nH]1
pKa [1]: 4.4

O=c1cc([C@H]2CCN[C@H](Cc3ccccc3)C2)o[nH]1
pKa [1]: 4.9

O=c1cc([C@H]2CCN[C@@H](Cc3ccccc3)C2)o[nH]1
bioavailability [2]: 33%
Drug excretion [3]: 25 %ID
dose excreted [4]: 7%
Drug metabolism [5]: metabolite_detected
microsomal CLint [6]: < 5 µL/min/mg
bioavailability [7]: 73%
CL renal [8]: 11 mL/min/kg
Stability (Hepatocyte): < 1 µL/min
clearance [9]: 2.9 mL/min/kg
CL renal [10]: 0.2 mL/min/kg
clearance [11]: 46 mL/min/kg

CC(C)(C)C[C@H]1C[C@@H](c2cc(=O)[nH]o2)CCN1
bioavailability [2]: 39%
Drug excretion [3]: 45 %ID
dose excreted [4]: 70%
Drug metabolism [5]: metabolite_detected
microsomal CLint [6]: < 5 µL/min/mg
bioavailability [7]: 53%
CL renal [8]: 6 mL/min/kg
Stability (Hepatocyte): < 1 µL/min
clearance [9]: 1.1 mL/min/kg
CL renal [10]: 0.8 mL/min/kg
clearance [11]: 13 mL/min/kg

O=c1cc([C@H]2CCN[C@@H](CCc3ccccc3)C2)o[nH]1
bioavailability [2]: 19%
Drug excretion [3]: 25 %ID
Drug metabolism [5]: metabolite_detected
microsomal CLint [6]: < 5 µL/min/mg
bioavailability [7]: 59%
CL renal [8]: 6 mL/min/kg
Stability (Hepatocyte): < 1 µL/min
clearance [9]: 1.8 mL/min/kg
CL renal [10]: 0.12 mL/min/kg
clearance [11]: 24 mL/min/kg
